Paper PMC11171218, “N-Benzylated 5-Hydroxybenzothiophene-2-carboxamides as Multi-Targeted Clk/Dyrk Inhibitors and Potential Anticancer Agents” (Cancers, 2024)

What was measured:
Clk1 = Clk1 (Homo sapiens, UniProt P49759); experiment: Z'-LYTE kinase inhibition assay, Clk1; type: biochemical; settings: for IC50: ATP conc. equivalent to Km; for inhibition at 1 µM: read-out: Clk1 % Inh. At 1 µM
Source text: (§1) 3. Experimental procedure for protein kinases and inhibition assays.
(§2) 3.1 The Z ́ -LYTE biochemical assay for screening and IC 50 determination for Clk1, Dyrk1A, Dyrk1B, Clk2 and Clk3 kinases.
(§3) The assay employs a fluorescence-based, coupled-enzyme format and is based on the differential sensitivity of phosphorylated and non-phosphorylated peptides to proteolytic cleavage. The peptide substrate is labeled with two fluorophores-one at each end-that make up a FRET pair. In the primary reaction, the kinase transfers the gamma-phosphate of ATP to a single tyrosine, serine, or threonine residue in a synthetic FRET-peptide. In the secondary reaction, a site-specific protease recognizes and cleaves non-phosphorylated FRET-peptides. Phosphorylation of FRET-peptides suppresses cleavage by the Development Reagent. Cleavage disrupts FRET between the donor (i.e., coumarin) and acceptor (i.e., fluorescein) fluorophores on the FRET-peptide, whereas uncleaved, phosphorylated FRET-peptides maintain FRET. A ratiometric method, which calculates the ratio (the Emission Ratio) of donor emission to acceptor emission after excitation of the donor fluorophore at 400 nm, is used to quantitate reaction progress. Both cleaved and uncleaved FRET-peptides contribute to the fluorescence signals and therefore to the Emission Ratio. The extent of phosphorylation of the FRET-peptide can be calculated from the Emission Ratio. The Emission Ratio will remain low if the FRET-peptide is phosphorylated (i.e., no kinase inhibition) and will be high if the FRET-peptide is non-phosphorylated (i.e., kinase inhibition).
(§4) The IC 50 values were determined for compounds displaying significant % inhibition in the screening step. IC 50 determination was done through testing at a range of concentrations with two […]
two independent experiments.
3.1.1 Clk1 kinase assay specific conditions:
The 2x Clk1 / Ser/Thr 09 mixture is prepared in 50 mM HEPES pH 7.5, 0.01% BRIJ-35, 10 mM MgCl 2, 1 mM EGTA. The final 10 μL kinase reaction consists of 30 - 120 ng Clk1 and 2 μM Ser/Thr 09 in 50 mM HEPES pH 7.5, 0.01% BRIJ-35, 10 mM MgCl 2, 1 mM EGTA. After the 1 h

T24 cells = experiment: CCK-8 cell viability, T24; type: cell-based; settings: Homo sapiens, T-24, 72 h; for inhibition at 20 µM: CCK-8, mean ± S.E.M. (n = 3), read-out: T24 % Inh. at μM; for IC50: CCK-8, 50% inhibition of viability
Description: (§5) All cells were purchased from Bioresource Collection and Research Center (Hsinchu, Taiwan) and cultured in corresponding media supplemented with 10% fetal bovine serum, 1 × Antibiotic-Antimycotic at 37 °C in a humidified incubator with 5% CO2. […] T24 cells were cultured in McCoy’s 5a media. IEC-6 cells were cultured in DMEM media supplemented with 5% fetal bovine serum, 1 × Antibiotic–Antimycotic, and 0.1 unit/mL insulin.
(§6) Cells were incubated with the Cell Counting Kit-8 (CCK-8) reagent (TargetMol, Boston, MA, USA) at 37 °C for 2 h. The cell viability was determined by spectrophotometer at 450 nm.

Clk3 = Clk3 (Homo sapiens, UniProt P49761); experiment: Z'-LYTE kinase inhibition assay, Clk3; type: biochemical; settings: 1 µM compound; screening by Thermo Fisher Scientific
Source text: as §1, §2, §3, §4
(§7) two independent experiments. […]
(§8) Development Reagent A is added. […]
3.1.5 Clk3 kinase assay specific conditions:
The 2X Clk3 / Ser/Thr 18 mixture is prepared in 50 mM Tris pH 8.5, 0.01% BRIJ-35, 10 mM […]
(§9) MgCl2, 1 mM EGTA, 0.02% NaN3. […]
of Development Reagent A is added.

Dyrk1B = Dyrk1B (Homo sapiens, UniProt Q9Y463); experiment: Z'-LYTE kinase inhibition assay, Dyrk1B; type: biochemical; settings: for IC50: ATP conc. equivalent to Km; for inhibition at 1 µM: read-out: Dyrk1B % Inh. At 1 µM
Source text: as §1, §2, §3, §4, §7
3.1.3 Dyrk1B kinase assay specific conditions:
The 2X Dyrk1B / Ser/Thr 18 mixture is prepared in 50 mM HEPES pH 6.5, 0.01% BRIJ-35, 10 […]
mM MgCl2, 1 mM EGTA, 0.02% NaN3.
as §8, §9

GSG2 (Haspin) = molecular target: T1, GSG2 (Haspin) (Homo sapiens, UniProt Q8TF76); experiment: Adapta universal kinase assay, Haspin; type: biochemical; settings: for inhibition at 1 µM: 1 µM compound, screening by Thermo Fisher Scientific; for IC50: ATP concentration equivalent to Km (25 μM ATP)
T1 construct: purchased Thermo Fisher Scientific, Madison, WI, USA (assay run there)
T1 sequence (Q8TF76 1-798): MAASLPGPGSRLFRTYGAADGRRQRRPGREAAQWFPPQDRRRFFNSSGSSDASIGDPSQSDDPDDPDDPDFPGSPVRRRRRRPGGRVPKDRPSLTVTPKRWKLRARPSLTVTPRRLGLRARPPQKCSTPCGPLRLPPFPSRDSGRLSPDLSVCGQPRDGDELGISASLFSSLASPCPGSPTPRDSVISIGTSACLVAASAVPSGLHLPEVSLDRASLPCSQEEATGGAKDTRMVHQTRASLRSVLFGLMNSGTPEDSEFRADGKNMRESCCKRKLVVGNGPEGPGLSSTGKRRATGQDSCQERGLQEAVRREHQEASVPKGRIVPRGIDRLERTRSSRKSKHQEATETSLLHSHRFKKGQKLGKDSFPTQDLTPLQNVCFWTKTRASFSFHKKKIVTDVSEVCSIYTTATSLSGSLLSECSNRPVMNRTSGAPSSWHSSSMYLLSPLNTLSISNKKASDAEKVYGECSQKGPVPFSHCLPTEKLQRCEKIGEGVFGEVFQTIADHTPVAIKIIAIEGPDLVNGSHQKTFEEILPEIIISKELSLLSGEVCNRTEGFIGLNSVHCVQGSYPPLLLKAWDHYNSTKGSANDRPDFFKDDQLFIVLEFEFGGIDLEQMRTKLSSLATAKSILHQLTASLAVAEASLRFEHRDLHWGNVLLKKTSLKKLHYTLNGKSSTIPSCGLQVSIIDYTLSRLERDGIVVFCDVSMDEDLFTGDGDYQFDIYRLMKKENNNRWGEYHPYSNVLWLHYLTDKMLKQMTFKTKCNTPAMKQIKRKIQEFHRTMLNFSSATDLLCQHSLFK
Description: 3.2 The Adapta universal kinase assay for screening and IC 50 determination against haspin.
The haspin kinase assay was done at Thermo Fisher Scientific, Madison, WI, USA using a fluorescence-based immunoassay known as ‘The Adapta Universal Kinase Assay’, which detects the ADP produced by kinases utilizing the TR-FRET technology. The final 10 μL kinase reaction consists of 0.25 - 1 ng GSG2 (Haspin) and 100 μM of the substrate (Histone H3 (1-20) peptide) in […]
μM ATP. After an incubation time of 1 h at RT, 5 μL of a detection mix was added.
To determine the half maximal inhibitory concentration (IC 50), the assays were performed in duplicate in the absence or presence of increasing doses of the tested compounds.

Hela cells = experiment: CCK-8 cell viability, Hela; type: cell-based; settings: Homo sapiens, 72 h; for inhibition at 20 µM: CCK-8, mean ± S.E.M. (n = 3), read-out: Hela % Inh. at μM; for IC50: CCK-8, 50% inhibition of viability
Description: as §5, §6

Dyrk1B, sequence (Q9Y463 whole entry): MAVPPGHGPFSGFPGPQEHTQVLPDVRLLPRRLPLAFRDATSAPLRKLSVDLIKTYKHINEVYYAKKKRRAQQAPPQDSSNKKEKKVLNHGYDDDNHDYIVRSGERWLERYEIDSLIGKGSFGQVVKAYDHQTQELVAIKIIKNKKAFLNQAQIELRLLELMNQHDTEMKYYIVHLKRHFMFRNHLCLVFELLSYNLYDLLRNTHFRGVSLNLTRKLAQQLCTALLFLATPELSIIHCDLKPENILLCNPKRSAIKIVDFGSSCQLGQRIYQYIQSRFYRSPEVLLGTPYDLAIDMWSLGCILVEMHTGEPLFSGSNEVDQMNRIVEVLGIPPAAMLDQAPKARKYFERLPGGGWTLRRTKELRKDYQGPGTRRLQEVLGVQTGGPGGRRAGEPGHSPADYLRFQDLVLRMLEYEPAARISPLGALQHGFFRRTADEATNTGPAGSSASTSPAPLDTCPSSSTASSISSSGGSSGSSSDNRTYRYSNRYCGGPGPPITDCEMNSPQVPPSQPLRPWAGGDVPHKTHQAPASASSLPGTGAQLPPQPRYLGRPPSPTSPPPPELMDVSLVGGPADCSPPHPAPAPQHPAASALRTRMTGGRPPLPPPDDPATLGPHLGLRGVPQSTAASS
Clk3, sequence (P49761 whole entry): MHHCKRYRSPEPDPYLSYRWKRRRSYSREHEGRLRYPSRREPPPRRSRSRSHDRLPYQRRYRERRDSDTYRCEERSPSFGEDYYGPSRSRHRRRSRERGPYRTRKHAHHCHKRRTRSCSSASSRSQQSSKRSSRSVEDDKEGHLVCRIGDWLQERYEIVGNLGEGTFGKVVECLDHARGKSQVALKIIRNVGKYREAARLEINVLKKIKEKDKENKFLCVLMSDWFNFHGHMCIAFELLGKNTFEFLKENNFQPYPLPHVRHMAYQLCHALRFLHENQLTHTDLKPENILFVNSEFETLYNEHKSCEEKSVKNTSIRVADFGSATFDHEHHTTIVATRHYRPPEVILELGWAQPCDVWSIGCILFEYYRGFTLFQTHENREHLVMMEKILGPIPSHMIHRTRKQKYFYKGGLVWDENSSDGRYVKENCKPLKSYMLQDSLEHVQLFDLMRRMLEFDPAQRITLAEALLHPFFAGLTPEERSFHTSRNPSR
Clk1, sequence (P49759 whole entry): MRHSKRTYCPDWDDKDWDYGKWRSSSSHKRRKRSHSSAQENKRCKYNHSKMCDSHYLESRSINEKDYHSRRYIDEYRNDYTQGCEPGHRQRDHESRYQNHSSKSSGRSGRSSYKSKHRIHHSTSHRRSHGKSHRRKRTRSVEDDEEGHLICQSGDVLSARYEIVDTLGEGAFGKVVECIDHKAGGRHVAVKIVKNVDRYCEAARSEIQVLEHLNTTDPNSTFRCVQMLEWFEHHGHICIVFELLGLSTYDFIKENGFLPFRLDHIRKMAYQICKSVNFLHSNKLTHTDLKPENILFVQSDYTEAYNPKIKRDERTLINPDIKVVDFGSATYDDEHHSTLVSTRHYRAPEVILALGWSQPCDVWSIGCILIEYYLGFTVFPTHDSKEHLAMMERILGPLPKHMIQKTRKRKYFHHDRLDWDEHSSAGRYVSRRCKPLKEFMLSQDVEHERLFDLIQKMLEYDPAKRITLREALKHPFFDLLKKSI

IC50 (Clk1) [µM] | inhibition at 1 µM (Clk1) [%] | IC50 (T24 cells) [µM] | inhibition at 1 µM (Clk3) [%] | IC50 (Dyrk1B) [µM] | inhibition at 1 µM (Dyrk1B) [%] | inhibition at 1 µM (GSG2 (Haspin)) [%] | IC50 (Hela cells) [µM] | IC50 (GSG2 (Haspin)) [µM] | Improvement in inhibitory activity against Clk1 compared to compound 1 (Clk1; ratio of IC50 vs compound 1) [fold] | Improvement in inhibitory activity against Dyrk1B compared to compound 1 (Dyrk1B; ratio of IC50 vs compound 1) [fold] | Compound | inhibition at 20 µM (T24 cells) [%] | inhibition at 20 µM (Hela cells) [%]
0.41 | 72 |  | 27 | 0.406 | 71 | 83 |  | 0.207 |  |  | O=C(NCc1cccc(F)c1)c1cc2cc(O)ccc2s1 [Compound 6, N-(3-Fluorobenzyl)-5-hydroxybenzo[b]thiophene-2-carboxamide] | 49.3 ± 6.04 | 53.3 ± 2.22
0.153 | 86 | 6 | 26 | 0.238 | 81 | 85 |  | 0.167 |  |  | COc1cccc(CNC(=O)c2cc3cc(O)ccc3s2)c1 [Compound 12, 5-Hydroxy-N-(3-methoxybenzyl)benzo[b]thiophene-2-carboxamide] | 100 | 50.7 ± 2.41

The next lines start with the compound.

Compound | IC50 (Clk1) [µM] | inhibition at 1 µM (Clk1) [%] | IC50 (T24 cells) [µM] | inhibition at 1 µM (Clk3) [%] | IC50 (Dyrk1B) [µM] | inhibition at 1 µM (Dyrk1B) [%] | inhibition at 1 µM (GSG2 (Haspin)) [%] | IC50 (Hela cells) [µM] | IC50 (GSG2 (Haspin)) [µM] | Improvement in inhibitory activity against Clk1 compared to compound 1 (Clk1; ratio of IC50 vs compound 1) [fold] | Improvement in inhibitory activity against Dyrk1B compared to compound 1 (Dyrk1B; ratio of IC50 vs compound 1) [fold] | inhibition at 20 µM (T24 cells) [%] | inhibition at 20 µM (Hela cells) [%]
O=C(NCc1cccc(Cl)c1)c1cc2cc(O)ccc2s1 [Compound 3, N-(3-Chlorobenzyl)-5-hydroxybenzo[b]thiophene-2-carboxamide] | 0.257 | 79 | 14 | 22 | 0.53 | 66 | 54 |  |  |  |  | 68.6 ± 3.95 | 50.5 ± 3.93
COc1ccccc1CNC(=O)c1cc2cc(O)ccc2s1 [Compound 11, 5-Hydroxy-N-(2-methoxybenzyl)benzo[b]thiophene-2-carboxamide] | 0.725 | 60 |  | 24 | 0.578 | 64 | 46 | 19.3 |  |  |  | 55.3 ± 3.3 | 62.1 ± 1.97
O=C(NCc1cc(F)cc(F)c1)c1cc2cc(O)ccc2s1 [Compound 17, N-(3,5-Difluorobenzyl)-5-hydroxybenzo[b]thiophene-2-carboxamide] | 0.168 | 85 | 14.9 | 26 | 0.242 | 81 | 80 | 18.1 | 0.256 | 4 | 4 | 59.9 ± 2.05 | 60.9 ± 2.82
